Tests used:
Tau-tubulin kinase 1 = Tau-tubulin kinase 1 (Homo sapiens, UniProt Q5TCY1); assay: Inhibition of recombinant human TTBK1 (1 to 479 residues) using casein as substrate incubated for 40 mins in presence of [gamma33P]ATP by radiometric scintillation counting analysis
Casein kinase 2 = Casein kinase 2 (Homo sapiens, UniProt P67870+P68400+P19784+Q8NEV1); assay: Inhibition of recombinant human CK2 in presence of [gamma-33ATP] by radiometric scintillation counting analysis; type: protein assay
[1] = target: Inhibitor of nuclear factor kappa-B kinase subunit beta (Homo sapiens, UniProt O14920); assay: Inhibition of recombinant full length human IKKbeta using peptide substrate after 40 mins by [gamma-33ATP] by radiometric scintillation counting analysis
[2] = target: Glycogen synthase kinase-3 alpha (Homo sapiens, UniProt P49840); assay: Inhibition of human GSK-3alpha S449A mutant (2 to end residues) using YRRAAVPPSPSLSR as substrate after 40 mins by [gamma-33ATP] radiometric scintillation counting analysis
[3] = target: Protein kinase C gamma type (Homo sapiens, UniProt P05129); assay: Inhibition of recombinant full-length human PKCgamma using histone H1 as substrate incubated for 40 mins in presence of [gamma33P]ATP by radiometric scintillation counting analysis
[4] = target: NUAK family SNF1-like kinase 1 (Homo sapiens, UniProt O60285); assay: Inhibition of human recombinant ARK5 (2 to end residues) using KKKVSRSGLYRSP as substrate incubated for 40 mins in presence of [gamma-33ATP] by radiometric scintillation counting analysis
[5] = target: Serine/threonine-protein kinase WNK3 (Homo sapiens, UniProt Q9BYP7); assay: Inhibition of recombinant human WNK3 (1 to 434 residues) using myelin basic protein as substrate incubated for 40 mins in presence of [gamma33P]ATP by radiometric scintillation counting analysis
Tau-tubulin kinase 2 = Tau-tubulin kinase 2 (Homo sapiens, UniProt Q6IQ55); assay: Inhibition of recombinant human TTBK2 (1 to331 residues) using casein as substrate incubated for 40 mins in presence of [gamma33P]ATP by radiometric scintillation counting analysis

Measured: IC50

NUAK family SNF1-like kinase 1, sequence (O60285 whole entry, the tested form may be a part): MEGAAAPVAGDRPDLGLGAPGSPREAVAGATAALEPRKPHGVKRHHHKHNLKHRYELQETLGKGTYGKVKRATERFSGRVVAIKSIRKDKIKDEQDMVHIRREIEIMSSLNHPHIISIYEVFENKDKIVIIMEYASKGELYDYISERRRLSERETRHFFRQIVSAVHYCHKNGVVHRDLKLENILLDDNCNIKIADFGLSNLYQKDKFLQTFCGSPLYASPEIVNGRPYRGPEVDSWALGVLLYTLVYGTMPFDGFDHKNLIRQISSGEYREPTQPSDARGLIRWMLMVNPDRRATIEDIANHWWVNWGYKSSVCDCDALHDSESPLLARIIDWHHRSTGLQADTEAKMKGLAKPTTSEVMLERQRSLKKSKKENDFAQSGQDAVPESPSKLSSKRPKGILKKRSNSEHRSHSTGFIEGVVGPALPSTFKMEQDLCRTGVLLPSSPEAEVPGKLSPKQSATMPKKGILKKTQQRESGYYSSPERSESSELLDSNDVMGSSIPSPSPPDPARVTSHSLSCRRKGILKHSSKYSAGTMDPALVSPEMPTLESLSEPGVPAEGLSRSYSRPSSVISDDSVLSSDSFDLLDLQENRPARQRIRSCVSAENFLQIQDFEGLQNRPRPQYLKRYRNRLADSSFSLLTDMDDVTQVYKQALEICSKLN
Tau-tubulin kinase 1, sequence (Q5TCY1 whole entry, the tested form may be a part): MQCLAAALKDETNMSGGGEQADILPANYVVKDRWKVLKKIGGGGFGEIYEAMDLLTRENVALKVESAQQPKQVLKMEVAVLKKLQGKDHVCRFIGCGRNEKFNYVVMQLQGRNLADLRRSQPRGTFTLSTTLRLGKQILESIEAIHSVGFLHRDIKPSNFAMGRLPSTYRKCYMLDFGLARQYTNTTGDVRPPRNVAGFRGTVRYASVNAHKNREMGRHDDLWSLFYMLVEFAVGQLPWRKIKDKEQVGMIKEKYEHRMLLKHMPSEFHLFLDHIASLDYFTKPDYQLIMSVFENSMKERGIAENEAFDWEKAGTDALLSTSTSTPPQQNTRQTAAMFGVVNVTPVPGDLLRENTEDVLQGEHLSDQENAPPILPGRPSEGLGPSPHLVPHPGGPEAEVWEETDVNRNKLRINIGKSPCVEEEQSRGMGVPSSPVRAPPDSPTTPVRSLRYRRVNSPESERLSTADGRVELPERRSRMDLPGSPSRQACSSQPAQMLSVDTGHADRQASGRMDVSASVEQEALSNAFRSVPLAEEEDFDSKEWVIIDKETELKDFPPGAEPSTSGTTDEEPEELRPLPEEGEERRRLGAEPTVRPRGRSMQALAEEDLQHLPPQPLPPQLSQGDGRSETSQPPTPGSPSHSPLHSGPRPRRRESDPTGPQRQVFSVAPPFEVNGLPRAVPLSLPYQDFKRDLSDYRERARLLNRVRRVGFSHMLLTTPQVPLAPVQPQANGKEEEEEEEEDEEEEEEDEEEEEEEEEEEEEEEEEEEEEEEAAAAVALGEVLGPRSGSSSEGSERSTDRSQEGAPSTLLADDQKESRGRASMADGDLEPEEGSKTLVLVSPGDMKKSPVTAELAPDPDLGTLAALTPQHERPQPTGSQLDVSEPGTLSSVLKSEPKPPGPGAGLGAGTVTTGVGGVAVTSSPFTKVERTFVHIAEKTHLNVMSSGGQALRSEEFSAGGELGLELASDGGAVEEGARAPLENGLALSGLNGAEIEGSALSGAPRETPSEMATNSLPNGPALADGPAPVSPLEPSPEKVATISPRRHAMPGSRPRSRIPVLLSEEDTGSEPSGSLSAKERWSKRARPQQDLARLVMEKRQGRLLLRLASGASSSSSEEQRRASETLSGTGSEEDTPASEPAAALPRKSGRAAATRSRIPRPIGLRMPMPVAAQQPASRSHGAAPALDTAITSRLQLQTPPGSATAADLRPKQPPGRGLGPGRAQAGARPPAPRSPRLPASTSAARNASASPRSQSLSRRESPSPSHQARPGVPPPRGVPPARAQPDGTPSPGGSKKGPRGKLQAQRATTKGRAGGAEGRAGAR
Serine/threonine-protein kinase WNK3, sequence (Q9BYP7 whole entry, the tested form may be a part): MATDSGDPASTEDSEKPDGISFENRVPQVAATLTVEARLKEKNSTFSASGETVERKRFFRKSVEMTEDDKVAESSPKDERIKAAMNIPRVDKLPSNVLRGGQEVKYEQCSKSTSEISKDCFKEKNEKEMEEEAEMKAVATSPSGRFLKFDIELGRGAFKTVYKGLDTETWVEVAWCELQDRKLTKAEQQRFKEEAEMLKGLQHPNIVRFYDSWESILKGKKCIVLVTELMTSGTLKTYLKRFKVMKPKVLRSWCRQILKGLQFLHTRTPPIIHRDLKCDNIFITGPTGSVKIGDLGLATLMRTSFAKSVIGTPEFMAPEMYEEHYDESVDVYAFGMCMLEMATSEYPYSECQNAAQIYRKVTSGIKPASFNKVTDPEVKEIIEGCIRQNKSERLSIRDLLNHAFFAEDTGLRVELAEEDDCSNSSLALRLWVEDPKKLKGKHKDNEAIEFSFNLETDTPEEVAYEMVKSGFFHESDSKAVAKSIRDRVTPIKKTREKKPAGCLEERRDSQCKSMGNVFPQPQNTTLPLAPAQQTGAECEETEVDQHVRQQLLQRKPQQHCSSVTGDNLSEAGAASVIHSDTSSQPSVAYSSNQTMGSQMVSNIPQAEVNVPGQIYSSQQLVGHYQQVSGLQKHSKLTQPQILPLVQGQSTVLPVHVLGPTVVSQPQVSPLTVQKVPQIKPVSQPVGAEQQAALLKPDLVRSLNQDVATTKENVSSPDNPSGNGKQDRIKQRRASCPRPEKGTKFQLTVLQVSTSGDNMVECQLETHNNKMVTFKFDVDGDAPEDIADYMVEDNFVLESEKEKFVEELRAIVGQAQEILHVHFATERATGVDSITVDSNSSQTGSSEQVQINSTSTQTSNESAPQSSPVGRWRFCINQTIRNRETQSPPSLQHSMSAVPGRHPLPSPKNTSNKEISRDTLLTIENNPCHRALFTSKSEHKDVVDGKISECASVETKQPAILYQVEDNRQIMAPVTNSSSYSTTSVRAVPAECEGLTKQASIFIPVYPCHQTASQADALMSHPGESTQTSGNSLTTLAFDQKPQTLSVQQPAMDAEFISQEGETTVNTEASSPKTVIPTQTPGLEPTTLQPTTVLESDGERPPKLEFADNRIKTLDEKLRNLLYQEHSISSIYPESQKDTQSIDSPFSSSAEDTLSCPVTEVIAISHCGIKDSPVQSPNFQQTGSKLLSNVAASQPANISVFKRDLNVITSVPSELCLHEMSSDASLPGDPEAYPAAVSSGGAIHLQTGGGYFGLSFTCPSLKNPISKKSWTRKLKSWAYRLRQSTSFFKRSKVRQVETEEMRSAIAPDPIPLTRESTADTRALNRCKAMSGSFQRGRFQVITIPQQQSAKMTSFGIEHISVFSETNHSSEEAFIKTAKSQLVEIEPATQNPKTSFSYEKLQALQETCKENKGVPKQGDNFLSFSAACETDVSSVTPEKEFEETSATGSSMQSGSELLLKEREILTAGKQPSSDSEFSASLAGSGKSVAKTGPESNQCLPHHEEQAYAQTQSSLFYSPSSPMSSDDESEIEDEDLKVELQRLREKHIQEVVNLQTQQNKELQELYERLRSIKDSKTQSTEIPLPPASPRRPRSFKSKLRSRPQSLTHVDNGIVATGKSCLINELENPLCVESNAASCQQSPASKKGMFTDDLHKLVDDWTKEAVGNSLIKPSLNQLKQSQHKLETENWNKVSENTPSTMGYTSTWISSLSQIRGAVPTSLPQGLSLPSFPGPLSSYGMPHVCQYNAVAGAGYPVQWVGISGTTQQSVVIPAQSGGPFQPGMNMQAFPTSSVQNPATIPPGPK
Glycogen synthase kinase-3 alpha, sequence (P49840 whole entry): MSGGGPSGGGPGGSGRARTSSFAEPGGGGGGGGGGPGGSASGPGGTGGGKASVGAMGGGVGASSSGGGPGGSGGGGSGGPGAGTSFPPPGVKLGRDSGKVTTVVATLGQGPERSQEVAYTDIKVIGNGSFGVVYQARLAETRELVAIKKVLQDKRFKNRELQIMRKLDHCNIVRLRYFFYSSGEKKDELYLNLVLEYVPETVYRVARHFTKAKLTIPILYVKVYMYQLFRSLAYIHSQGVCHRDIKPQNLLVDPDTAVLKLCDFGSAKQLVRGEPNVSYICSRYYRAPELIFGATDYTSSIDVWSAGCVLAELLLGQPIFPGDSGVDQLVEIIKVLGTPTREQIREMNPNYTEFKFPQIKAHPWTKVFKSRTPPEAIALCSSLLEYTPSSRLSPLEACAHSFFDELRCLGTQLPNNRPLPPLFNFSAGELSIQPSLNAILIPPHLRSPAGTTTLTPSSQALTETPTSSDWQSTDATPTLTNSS

CN(C)c1ccc(C(=O)Nc2cccc(NC(=O)COc3ccc4c(=O)ccoc4c3)c2)cc1
> 10 µM: all assays above
